In publication PMC8550792, “Evolution of kinase polypharmacology across HSP90 drug discovery” (Cell Chemical Biology, 2021):

Assays:
Test in all cases: biochemical
Format in all cases: biochemical
382 unique human kinases [1] = target: T1, 382 unique human kinases (Homo sapiens, UniProt P10721); settings: c-Kit, 10 uM; for remaining activity at 10 µM: read-out: % Enzyme Activity (relative to DMSO controls)
T1 construct: purchased Reaction Biology (HotSpot contract assay)

382 unique human kinases [2] = target: T2, 382 unique human kinases (Homo sapiens, UniProt P00533, C797S); settings: EGFR (C797S), 10 uM; for remaining activity at 10 µM: read-out: % Enzyme Activity (relative to DMSO controls)
T2 construct: purchased Reaction Biology (HotSpot contract assay)

382 unique human kinases [3] = target: T3, 382 unique human kinases (Homo sapiens, UniProt Q86UX6); settings: STK32C/YANK3, 10 uM; for remaining activity at 10 µM: read-out: % Enzyme Activity (relative to DMSO controls)
T3 construct: purchased Reaction Biology (HotSpot contract assay)

382 unique human kinases [4] = target: T4, 382 unique human kinases (Homo sapiens, UniProt Q9Y2U5); settings: MEKK2, compound at 10 uM, duplicate values; for remaining activity at 10 µM: read-out: % Enzyme Activity (relative to DMSO controls)
T4 construct: purchased Reaction Biology (HotSpot contract assay)
T4 sequence (Q9Y2U5 1-619): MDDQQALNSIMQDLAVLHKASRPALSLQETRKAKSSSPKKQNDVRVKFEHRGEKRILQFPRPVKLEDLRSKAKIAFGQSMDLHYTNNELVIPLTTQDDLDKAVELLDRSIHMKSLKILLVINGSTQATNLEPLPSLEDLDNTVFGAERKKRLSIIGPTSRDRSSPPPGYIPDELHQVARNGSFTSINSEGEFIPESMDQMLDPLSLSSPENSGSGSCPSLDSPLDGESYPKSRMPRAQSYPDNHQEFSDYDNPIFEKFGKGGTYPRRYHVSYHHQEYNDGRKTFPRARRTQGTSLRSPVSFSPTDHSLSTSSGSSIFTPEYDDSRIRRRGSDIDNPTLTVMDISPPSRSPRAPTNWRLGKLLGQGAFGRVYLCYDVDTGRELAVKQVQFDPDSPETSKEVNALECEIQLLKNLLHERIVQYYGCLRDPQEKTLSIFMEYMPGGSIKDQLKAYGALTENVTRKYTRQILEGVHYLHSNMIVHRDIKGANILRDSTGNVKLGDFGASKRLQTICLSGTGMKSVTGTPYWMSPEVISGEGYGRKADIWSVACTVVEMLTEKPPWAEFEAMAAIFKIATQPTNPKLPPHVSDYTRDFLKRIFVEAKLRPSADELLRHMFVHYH

382 unique human kinases [5] = target: T5, 382 unique human kinases (Homo sapiens, UniProt P29320); settings: EPHA3, 10 uM; for remaining activity at 10 µM: read-out: % Enzyme Activity (relative to DMSO controls)
T5 construct: purchased Reaction Biology (HotSpot contract assay)
T5 sequence (P29320 21-983): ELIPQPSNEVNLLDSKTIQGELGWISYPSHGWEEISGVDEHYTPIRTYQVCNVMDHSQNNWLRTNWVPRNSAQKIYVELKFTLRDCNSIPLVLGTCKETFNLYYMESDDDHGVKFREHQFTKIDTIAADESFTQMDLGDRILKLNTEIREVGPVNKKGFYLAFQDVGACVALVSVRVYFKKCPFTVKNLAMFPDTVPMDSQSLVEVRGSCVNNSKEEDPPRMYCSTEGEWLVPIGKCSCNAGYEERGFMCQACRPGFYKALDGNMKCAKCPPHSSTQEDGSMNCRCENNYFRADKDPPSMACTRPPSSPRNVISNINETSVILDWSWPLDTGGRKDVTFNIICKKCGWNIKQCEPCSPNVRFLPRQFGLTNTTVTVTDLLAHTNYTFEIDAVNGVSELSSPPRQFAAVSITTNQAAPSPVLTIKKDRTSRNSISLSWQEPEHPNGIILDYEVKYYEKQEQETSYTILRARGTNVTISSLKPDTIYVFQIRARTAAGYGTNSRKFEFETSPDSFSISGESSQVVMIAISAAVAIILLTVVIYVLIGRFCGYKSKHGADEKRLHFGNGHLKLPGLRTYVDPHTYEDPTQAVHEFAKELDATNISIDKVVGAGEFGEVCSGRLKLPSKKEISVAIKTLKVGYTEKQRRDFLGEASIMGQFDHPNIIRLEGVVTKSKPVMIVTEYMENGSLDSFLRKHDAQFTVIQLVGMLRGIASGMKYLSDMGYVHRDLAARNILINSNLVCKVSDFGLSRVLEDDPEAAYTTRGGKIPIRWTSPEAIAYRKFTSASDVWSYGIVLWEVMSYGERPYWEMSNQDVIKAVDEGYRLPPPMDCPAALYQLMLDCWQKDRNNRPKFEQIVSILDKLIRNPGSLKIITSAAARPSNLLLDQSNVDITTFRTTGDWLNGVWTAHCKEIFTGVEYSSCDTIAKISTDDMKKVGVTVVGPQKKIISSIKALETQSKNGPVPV

382 unique human kinases [6] = target: T6, 382 unique human kinases (Homo sapiens, UniProt Q12852); settings: kinase DLK/MAP3K12, compound 10 uM; for remaining activity at 10 µM: read-out: % Enzyme Activity (relative to DMSO controls)
T6 sequence (Q12852 1-859): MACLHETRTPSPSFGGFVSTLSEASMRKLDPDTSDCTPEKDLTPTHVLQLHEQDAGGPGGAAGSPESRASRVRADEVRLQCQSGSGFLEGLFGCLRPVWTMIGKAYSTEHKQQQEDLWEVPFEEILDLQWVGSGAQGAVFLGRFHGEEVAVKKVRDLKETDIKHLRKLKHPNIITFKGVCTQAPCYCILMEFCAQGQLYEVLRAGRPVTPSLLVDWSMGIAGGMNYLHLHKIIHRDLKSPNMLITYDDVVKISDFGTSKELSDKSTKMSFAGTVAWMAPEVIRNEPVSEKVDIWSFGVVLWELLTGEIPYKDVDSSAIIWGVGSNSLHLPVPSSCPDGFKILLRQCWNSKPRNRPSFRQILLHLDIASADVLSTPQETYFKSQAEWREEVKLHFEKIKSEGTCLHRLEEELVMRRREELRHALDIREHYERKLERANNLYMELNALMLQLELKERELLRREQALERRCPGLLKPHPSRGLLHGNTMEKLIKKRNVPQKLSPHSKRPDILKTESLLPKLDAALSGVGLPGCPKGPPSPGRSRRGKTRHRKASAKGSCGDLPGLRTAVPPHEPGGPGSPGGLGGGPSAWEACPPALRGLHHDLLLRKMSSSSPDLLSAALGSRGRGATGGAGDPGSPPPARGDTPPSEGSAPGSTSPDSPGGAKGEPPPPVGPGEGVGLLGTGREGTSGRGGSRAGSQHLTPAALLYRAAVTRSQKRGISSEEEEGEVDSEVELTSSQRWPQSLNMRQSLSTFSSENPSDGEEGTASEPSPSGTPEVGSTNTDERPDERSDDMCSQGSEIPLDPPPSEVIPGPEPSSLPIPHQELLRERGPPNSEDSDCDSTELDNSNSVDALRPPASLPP

382 unique human kinases [7] = target: T7, 382 unique human kinases (Homo sapiens, UniProt Q9NY57); settings: kinase STK32B/YANK2, compound 10 uM; for remaining activity at 10 µM: read-out: % Enzyme Activity (relative to DMSO controls)
T7 construct: purchased Reaction Biology (HotSpot contract assay)

382 unique human kinases [8] = target: T8, 382 unique human kinases (Homo sapiens, UniProt P15056, V600E); settings: BRAF (V599E), 10 uM; for remaining activity at 10 µM: read-out: % Enzyme Activity (relative to DMSO controls)
T8 construct: purchased Reaction Biology (HotSpot contract assay)
T8 sequence (P15056 whole entry V600E): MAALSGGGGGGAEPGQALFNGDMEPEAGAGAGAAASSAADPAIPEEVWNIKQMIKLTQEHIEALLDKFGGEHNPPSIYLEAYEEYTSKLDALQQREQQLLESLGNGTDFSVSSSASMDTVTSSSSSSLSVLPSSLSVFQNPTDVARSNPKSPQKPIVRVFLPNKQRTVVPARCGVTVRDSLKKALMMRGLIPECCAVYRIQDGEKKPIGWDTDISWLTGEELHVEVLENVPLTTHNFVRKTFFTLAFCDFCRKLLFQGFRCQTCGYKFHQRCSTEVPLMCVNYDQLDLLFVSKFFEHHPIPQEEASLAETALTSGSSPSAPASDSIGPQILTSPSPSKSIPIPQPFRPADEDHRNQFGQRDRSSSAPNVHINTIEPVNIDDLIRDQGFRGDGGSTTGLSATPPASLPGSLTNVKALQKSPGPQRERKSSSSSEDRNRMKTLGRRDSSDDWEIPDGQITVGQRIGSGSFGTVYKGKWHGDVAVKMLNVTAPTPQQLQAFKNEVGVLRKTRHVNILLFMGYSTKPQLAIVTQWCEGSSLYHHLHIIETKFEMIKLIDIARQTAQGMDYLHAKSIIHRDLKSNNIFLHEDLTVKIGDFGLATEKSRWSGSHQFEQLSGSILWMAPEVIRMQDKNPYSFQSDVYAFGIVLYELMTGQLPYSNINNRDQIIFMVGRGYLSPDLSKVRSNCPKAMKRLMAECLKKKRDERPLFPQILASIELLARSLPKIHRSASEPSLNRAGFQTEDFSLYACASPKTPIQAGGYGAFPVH

T3 sequence (Q86UX6 whole entry): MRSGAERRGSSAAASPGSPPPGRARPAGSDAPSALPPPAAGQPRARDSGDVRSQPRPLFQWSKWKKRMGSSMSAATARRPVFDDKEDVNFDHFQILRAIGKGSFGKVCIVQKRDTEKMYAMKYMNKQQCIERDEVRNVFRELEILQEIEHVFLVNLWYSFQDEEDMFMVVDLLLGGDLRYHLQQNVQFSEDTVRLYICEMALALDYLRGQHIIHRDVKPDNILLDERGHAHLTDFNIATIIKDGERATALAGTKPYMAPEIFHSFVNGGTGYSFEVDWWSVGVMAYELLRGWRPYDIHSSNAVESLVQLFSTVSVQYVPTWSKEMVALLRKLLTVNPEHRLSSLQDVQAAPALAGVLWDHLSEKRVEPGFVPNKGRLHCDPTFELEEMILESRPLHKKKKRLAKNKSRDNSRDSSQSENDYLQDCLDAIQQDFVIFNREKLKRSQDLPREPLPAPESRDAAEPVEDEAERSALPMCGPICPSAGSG
T7 sequence (Q9NY57 whole entry): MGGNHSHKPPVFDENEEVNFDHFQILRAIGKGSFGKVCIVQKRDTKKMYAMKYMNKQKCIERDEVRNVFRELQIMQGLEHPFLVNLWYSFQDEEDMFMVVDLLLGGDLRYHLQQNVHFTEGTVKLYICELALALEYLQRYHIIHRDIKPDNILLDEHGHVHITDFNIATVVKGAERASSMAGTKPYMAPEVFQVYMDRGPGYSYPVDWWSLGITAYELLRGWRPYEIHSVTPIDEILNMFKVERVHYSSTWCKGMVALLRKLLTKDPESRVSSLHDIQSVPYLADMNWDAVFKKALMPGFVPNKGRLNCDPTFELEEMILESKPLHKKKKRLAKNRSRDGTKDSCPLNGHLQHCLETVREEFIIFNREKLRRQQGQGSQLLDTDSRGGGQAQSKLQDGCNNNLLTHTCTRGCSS
T1 sequence (P10721 26-976): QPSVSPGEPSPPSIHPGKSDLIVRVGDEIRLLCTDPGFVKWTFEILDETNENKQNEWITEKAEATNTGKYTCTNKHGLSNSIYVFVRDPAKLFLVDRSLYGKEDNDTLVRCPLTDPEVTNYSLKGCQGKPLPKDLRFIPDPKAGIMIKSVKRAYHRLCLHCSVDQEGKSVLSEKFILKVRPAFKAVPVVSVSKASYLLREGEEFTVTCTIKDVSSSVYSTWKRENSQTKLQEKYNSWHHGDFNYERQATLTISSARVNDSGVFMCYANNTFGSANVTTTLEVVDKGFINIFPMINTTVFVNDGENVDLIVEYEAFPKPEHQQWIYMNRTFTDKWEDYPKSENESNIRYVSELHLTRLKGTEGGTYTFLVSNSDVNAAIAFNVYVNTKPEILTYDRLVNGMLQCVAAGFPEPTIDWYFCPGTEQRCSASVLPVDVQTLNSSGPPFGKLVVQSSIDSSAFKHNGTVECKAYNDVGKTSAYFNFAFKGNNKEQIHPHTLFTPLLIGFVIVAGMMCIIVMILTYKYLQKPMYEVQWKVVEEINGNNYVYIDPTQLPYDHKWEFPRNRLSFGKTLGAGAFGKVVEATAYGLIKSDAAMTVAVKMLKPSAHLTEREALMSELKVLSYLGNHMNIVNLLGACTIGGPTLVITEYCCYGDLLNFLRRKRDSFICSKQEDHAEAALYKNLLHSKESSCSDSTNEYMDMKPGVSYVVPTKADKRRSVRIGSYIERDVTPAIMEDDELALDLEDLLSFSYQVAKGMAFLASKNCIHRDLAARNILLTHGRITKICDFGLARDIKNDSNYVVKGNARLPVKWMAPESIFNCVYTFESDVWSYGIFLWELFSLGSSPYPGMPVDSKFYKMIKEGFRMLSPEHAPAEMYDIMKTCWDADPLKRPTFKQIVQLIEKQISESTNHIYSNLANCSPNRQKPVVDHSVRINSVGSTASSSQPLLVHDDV

| Structure (SMILES) | remaining activity at 10 µM (382 unique human kinases [1]) [%] | remaining activity at 10 µM (382 unique human kinases [2]) [%] | remaining activity at 10 µM (382 unique human kinases [3]) [%] | remaining activity at 10 µM (382 unique human kinases [4]) [%] | remaining activity at 10 µM (382 unique human kinases [5]) [%] | remaining activity at 10 µM (382 unique human kinases [6]) [%] | remaining activity at 10 µM (382 unique human kinases [7]) [%] | remaining activity at 10 µM (382 unique human kinases [8]) [%] | % Enzyme Activity (relative to DMSO controls) (382 unique human kinases [1]) [%] | % Enzyme Activity (relative to DMSO controls) (382 unique human kinases [2]) [%] | % Enzyme Activity (relative to DMSO controls) (382 unique human kinases [3]) [%] | % Enzyme Activity (relative to DMSO controls) (382 unique human kinases [4]) [%] | % Enzyme Activity (relative to DMSO controls) (382 unique human kinases [5]) [%] | % Enzyme Activity (relative to DMSO controls) (382 unique human kinases [6]) [%] | % Enzyme Activity (relative to DMSO controls) (382 unique human kinases [7]) [%] | % Enzyme Activity (relative to DMSO controls) (382 unique human kinases [8]) [%] |
| --- | --- | --- | --- | --- | --- | --- | --- | --- | --- | --- | --- | --- | --- | --- | --- | --- |
| CC(C)c1cc(-c2n[nH]c(=O)n2-c2ccc3c(ccn3C)c2)c(O)cc1O [Ganetespib (STA9090)] | 80.8 | 70.9 | 109 | 109 | 73.7 | 84.7 | 107 |  |  |  |  |  |  |  |  |  |
| CC(C)c1cc(-c2n[nH]c(=O)n2-c2ccc3c(ccn3C)c2)c(O)cc1O [Ganetespib] |  |  |  |  |  |  |  | 110 |  |  |  |  |  |  |  |  |
| CCNC(=O)c1noc(-c2cc(C(C)C)c(O)cc2O)c1-c1ccc(CN2CCOCC2)cc1 [Luminespib (AUY-922)] | 72.9 | 103 | 69.9 | 123 | 104 | 122 | 88.8 |  | 72.90 | 99.85 | 69.42 | 118.79 | 100.00 | 120.31 | 88.50 |  |
| CCNC(=O)c1noc(-c2cc(C(C)C)c(O)cc2O)c1-c1ccc(CN2CCOCC2)cc1 [Luminespib] |  |  |  |  |  |  |  | 98.8 |  |  |  |  |  |  |  | 98.13 |
